Results published in patent US12251413B2, “Use of effective part extract of Monochasma savatieri in preparation of drug for treating inflammatory disease or tumor” (Harbin Kanglong Pharmaceutical Co., Ltd., priority 2022, dated 2025).

Tested on: TNF-α
Experiment: Inhibition of TNF-α secretion by LPS-induced RAW264.7 macrophages (ELISA)
Type: cell-based
Conditions: Mus musculus, RAW264.7, LPS 1 μg/mL, 24 h (Table 1), read-out: TNF-α inhibition rate (%)
Excerpt: This test example simulated the inflammatory response at a cellular level in vitro, that is, the inflammatory response of mouse peritoneal macrophages (RAW264.7) was induced by lipopolysaccharide (LPS) to produce models of the inflammatory factors, and an inhibitory effect of the effective part extract of Monochasma savatieri on the TNF-α secreted by cells was detected by ELISA, to evaluate an anti-inflammatory effect thereof.
Test reagents were: RAW264.7 cells; a DMEM medium, a 1640 medium (Invitrogen), fetal bovine serum (Gibco); LPS(Sigma); an ELISA kit (ebioscience), and a CCK8 reagent (Taosu, Beijing).
Test samples were: the B2-13, B2-15, B2-16, and B2-16-15 prepared in Example 1; a positive drug: dexamethasone.
Test method: • 1. Cell culture: the RAW264.7 cells were cultured in the 1640+10% FBS at 37° C. with 5% CO2, and the cells were passaged when showing logarithmic growth. When reaching 80% confluency, the cells were plated in a 96-well plate (density: 2×10^4 cells/well) at 100 μL/well, and then incubated at 37° C. with 5% CO2 for 12 h to 18 h. • 2. […]
Evaluation index: an inhibition rate of the inflammatory factor TNF-α. OD values were read at 450 nm and 570 nm, a standard curve was plotted, a concentration of TNF-α in the medium was calculated, and the inhibition rate and inhibitory activity IC50 value of the samples on the TNF-α produced by the cells were calculated. […]

Compound: C[C@@H]1C[C@H]2[C@@H]3CCC4=CC(=O)C=C[C@]4(C)[C@@]3(F)[C@@H](O)C[C@]2(C)[C@@]1(O)C(=O)CO [Dexamethasone, dexamethasone]
- inhibition at 10 µM: 58.7%
